According to ChEMBL document CHEMBL1201862, “PubChem BioAssay data set” (2004):
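Growth conditions: 96-well plates. Treatment: test compound, 48 hours, 5 concentrations. Analysis: linear interpolation between bracketing concentrations; unreached endpoints set to highest concentration. The concentration for 50% growth inhibition is given as GI50.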 The source made the active and inactive calls. Rule as the data show it: active = GI50 up to about 1.1 µM and inactive = higher.

Key:
Assay in all cases: DTP human tumour cell line panel, 48 h
786-0 = test system: 786-0
A498 = test system: A498
A549 = test system: A549
ACHN = test system: ACHN
CAKI-1 = test system: CAKI-1
CCRF-CEM = test system: CCRF-CEM
COLO 205 = test system: COLO 205
DLD-1 = test system: DLD-1
DMS-114 = test system: DMS-114
DMS-273 = test system: DMS-273
EKVX = test system: EKVX
HCT-116 = test system: HCT-116
HCT-15 = test system: HCT-15
HL-60 = test system: HL-60
HOP-62 = test system: HOP-62
HOP-92 = test system: HOP-92
HT-29 = test system: HT-29
IGROV-1 = test system: IGROV-1
KM-20L2 = test system: KM-20L2
KM12 = test system: KM12
LXFL 529 = test system: LXFL 529
M14 = test system: M14
M19-MEL = test system: M19-MEL
MOLT-4 = test system: MOLT-4
Malme-3M = test system: Malme-3M
NCI-H226 = test system: NCI-H226
NCI-H23 = test system: NCI-H23
NCI-H460 = test system: NCI-H460
NCI-H522 = test system: NCI-H522
OVCAR-3 = test system: OVCAR-3
OVCAR-4 = test system: OVCAR-4
OVCAR-5 = test system: OVCAR-5
OVCAR-8 = test system: OVCAR-8
RPMI-8226 = test system: RPMI-8226
RXF 393 = test system: RXF 393
RXF 631 = test system: RXF 631
SF-268 = test system: SF-268
SF-295 = test system: SF-295
SF-539 = test system: SF-539
SK-MEL-28 = test system: SK-MEL-28
SK-MEL-2 = test system: SK-MEL-2
SK-OV-3 = test system: SK-OV-3
SN12C = test system: SN12C
SNB-19 = test system: SNB-19
SNB-75 = test system: SNB-75
SNB-78 = test system: SNB-78
SR = test system: SR
SW-620 = test system: SW-620
TK-10 = test system: TK-10
U-251 = test system: U-251
UACC-257 = test system: UACC-257
UACC-62 = test system: UACC-62
UO-31 = test system: UO-31

With `Cc1cc(C)c(C(=O)c2no[n+]([O-])c2C(=O)c2c(C)cc(C)c(Br)c2C)c(C)c1Br` as the molecule, how does the GI50 (786-0) read?
Its GI50 is 15.1 µM (inactive).

And the GI50 (A498)?
Its GI50 is 17.6 µM (inactive).

What about the GI50 (A549) of the same molecule?
The GI50 was 13.8 µM (inactive).

And the GI50 (ACHN)?
Its GI50 is 12.6 µM (inactive).

And the GI50 (CAKI-1)?
Its GI50 is 11.4 µM (inactive).

And the GI50 (CCRF-CEM)?
The GI50 was 2.59 µM (inactive).

And the GI50 (COLO 205)?
The GI50 was 16.8 µM (inactive).

And the GI50 (DLD-1)?
Its GI50 is 14.2 µM (inactive).

And the GI50 (DMS-114)?
Its GI50 is 10.8 µM (inactive).

And the GI50 (DMS-273)?
The GI50 was 18.5 µM (inactive).

And the GI50 (EKVX)?
The GI50 was 12 µM (inactive).

What about the GI50 (HCT-116) of the same molecule?
The GI50 was 10.2 µM (inactive).

What about the GI50 (HCT-15) of the same molecule?
The GI50 was 13.5 µM.

And the GI50 (HL-60)?
The GI50 was 3.35 µM (inactive).

And the GI50 (HOP-62)?
Its GI50 is 18.2 µM (inactive).

What about the GI50 (HOP-92) of the same molecule?
Its GI50 is 6.19 µM (inactive).

And the GI50 (HT-29)?
The GI50 was 12.3 µM (inactive).

And the GI50 (IGROV-1)?
Its GI50 is 6.15 µM (inactive).

What about the GI50 (KM-20L2) of the same molecule?
The GI50 was 16.2 µM (inactive).

What about the GI50 (KM12) of the same molecule?
The GI50 was 13.6 µM (inactive).

And the GI50 (LXFL 529)?
The GI50 was 11.2 µM (inactive).

And the GI50 (M14)?
The GI50 was 11.8 µM (inactive).

And the GI50 (M19-MEL)?
Its GI50 is 12.6 µM (inactive).

What about the GI50 (MOLT-4) of the same molecule?
Its GI50 is 4.65 µM (inactive).

What about the GI50 (Malme-3M) of the same molecule?
The GI50 was 14 µM (inactive).

And the GI50 (NCI-H226)?
Its GI50 is 16.1 µM (inactive).

What about the GI50 (NCI-H23) of the same molecule?
The GI50 was 11.5 µM (inactive).

What about the GI50 (NCI-H460) of the same molecule?
The GI50 was 14.2 µM (inactive).

And the GI50 (NCI-H522)?
Its GI50 is 10.9 µM (inactive).

And the GI50 (OVCAR-3)?
The GI50 was 13.6 µM (inactive).

And the GI50 (OVCAR-4)?
The GI50 was 10.2 µM (inactive).

What about the GI50 (OVCAR-5) of the same molecule?
Its GI50 is 16 µM (inactive).

What about the GI50 (OVCAR-8) of the same molecule?
The GI50 was 10.9 µM (inactive).

And the GI50 (RPMI-8226)?
Its GI50 is 10.2 µM (inactive).

What about the GI50 (RXF 393) of the same molecule?
Its GI50 is 6.05 µM (inactive).

What about the GI50 (RXF 631) of the same molecule?
The GI50 was 13.6 µM (inactive).

And the GI50 (SF-268)?
The GI50 was 11.5 µM (inactive).

What about the GI50 (SF-295) of the same molecule?
Its GI50 is 16.9 µM (inactive).

What about the GI50 (SF-539) of the same molecule?
Its GI50 is 15.5 µM (inactive).

What about the GI50 (SK-MEL-28) of the same molecule?
Its GI50 is 14.4 µM (inactive).

What about the GI50 (SK-MEL-2) of the same molecule?
The GI50 was 14.1 µM (inactive).

And the GI50 (SK-OV-3)?
The GI50 was 20.7 µM (inactive).

And the GI50 (SN12C)?
Its GI50 is 14.2 µM (inactive).

And the GI50 (SNB-19)?
The GI50 was 15.7 µM (inactive).

And the GI50 (SNB-75)?
Its GI50 is 9.31 µM (inactive).

What about the GI50 (SNB-78) of the same molecule?
The GI50 was 18.6 µM (inactive).

And the GI50 (SR)?
Its GI50 is 4.27 µM (inactive).

What about the GI50 (SW-620) of the same molecule?
Its GI50 is 12.9 µM (inactive).

And the GI50 (TK-10)?
The GI50 was 9.31 µM (inactive).

What about the GI50 (U-251) of the same molecule?
The GI50 was 12.5 µM (inactive).

And the GI50 (UACC-257)?
The GI50 was > 10 µM (inactive).

And the GI50 (UACC-62)?
The GI50 was 10.7 µM (inactive).

What about the GI50 (UO-31) of the same molecule?
The GI50 was 7.67 µM (inactive).
